Measured values as given in ChEMBL document CHEMBL2321859, “Cytotoxic betulin-derived hydroxypropargylamines trigger apoptosis” (Bioorg Med Chem, 2013).

What was measured:
SW-1736 = assay: Cytotoxicity against human SW1736 cells assessed as cell viability after 96 hrs by SRB assay; assay type: functional, cell-based
[1] = Cytotoxicity against human Lipo cells assessed as cell viability after 96 hrs by SRB assay; assay type: functional, cell-based
MCF7 = assay: Cytotoxicity against human MCF7 cells assessed as cell viability after 96 hrs by SRB assay; assay type: functional, cell-based
A2780 = assay: Cytotoxicity against human A2780 cells assessed as cell viability after 96 hrs by SRB assay; assay type: functional, cell-based
DLD-1 = assay: Cytotoxicity against human DLD1 cells assessed as cell viability after 96 hrs by SRB assay; assay type: functional, cell-based
[2] = Cytotoxicity against human 518A2 cells assessed as cell viability after 96 hrs by SRB assay; assay type: functional, cell-based
[3] = Cytotoxicity against human A253 cells assessed as cell viability after 96 hrs by SRB assay; assay type: functional, cell-based
A549 = assay: Cytotoxicity against human A549 cells assessed as cell viability after 96 hrs by SRB assay; assay type: functional, cell-based
NIH3T3 = assay: Cytotoxicity against mouse NIH/3T3 cells assessed as cell viability after 96 hrs by SRB assay; assay type: cell-based; conditions: NIH3T3, 96 h
8505C = assay: Cytotoxicity against human 8505C cells assessed as cell viability after 96 hrs by SRB assay; assay type: functional, cell-based

Row | SMILES | IC50 (SW-1736; Homo sapiens, SW-1736, 96 h) | IC50 ([1]; Homo sapiens, Lipo, 96 h) | IC50 (MCF7; Homo sapiens, MCF7, 96 h) | IC50 (A2780; Homo sapiens, A2780, 96 h) | IC50 (DLD-1; Homo sapiens, DLD-1, 96 h) | IC50 ([2]; Homo sapiens, 518A2, 96 h) | IC50 ([3]; Homo sapiens, A253, 96 h) | IC50 (A549; Homo sapiens, A549, 96 h) | IC50 (NIH3T3) | IC50 (8505C; Homo sapiens, 8505C, 96 h) | IC50 (SW-1736; sw-1736) | IC50 (MCF7; mcf7) | IC50 (A2780; a2780) | IC50 (DLD-1; dld-1) | IC50 ([2]; 518a2) | IC50 ([3]; a253) | IC50 (8505C; 8505c) | IC50 ([1]; lipo) | IC50 (A549; a549)
1 | C=C(C)[C@@H]1CC[C@]2([C@@H](O)C#CCN(Cc3ccccc3)Cc3ccccc3)CC[C@]3(C)[C@H](CC[C@@H]4[C@@]5(C)CC[C@H](OC(C)=O)C(C)(C)[C@@H]5CC[C@]43C)[C@@H]12 | > 70 µM | > 70 µM | 27.2 µM | > 70 µM | > 70 µM | > 30 µM | > 70 µM | > 70 µM | > 70 µM | > 30 µM | – | – | – | – | – | – | – | – | –
2 | C=C(C)[C@@H]1CC[C@]2([C@H](O)C#CCN3CCSCC3)CC[C@]3(C)[C@H](CC[C@@H]4[C@@]5(C)CC[C@H](OC(C)=O)C(C)(C)[C@@H]5CC[C@]43C)[C@@H]12 | 3.7 µM | 3.5 µM | 3.8 µM | 4.3 µM | 19 µM | 9.3 µM | 7.5 µM | 16.3 µM | 8.8 µM | 2 µM | – | – | – | – | – | – | – | – | –
3 | C=C(C)[C@@H]1CC[C@]2([C@H](O)C#CCN(C(C)C)C(C)C)CC[C@]3(C)[C@H](CC[C@@H]4[C@@]5(C)CC[C@H](O)C(C)(C)[C@@H]5CC[C@]43C)[C@@H]12 | 4 µM | 10.3 µM | 8.2 µM | 5.4 µM | 9.1 µM | 6.4 µM | 8.2 µM | 8.3 µM | 6.2 µM | 5.8 µM | – | – | – | – | – | – | – | – | –
4 | C=C(C)[C@@H]1CC[C@]2([C@H](O)C#CCN3CCCCCC3)CC[C@]3(C)[C@H](CC[C@@H]4[C@@]5(C)CC[C@H](OC(C)=O)C(C)(C)[C@@H]5CC[C@]43C)[C@@H]12 | 32.3 µM | > 30 µM | 13.5 µM | 14.4 µM | 40.8 µM | 22.4 µM | 20.1 µM | 47 µM | 17 µM | 32.3 µM | – | – | – | – | – | – | – | – | –
5 | C=CCN(CC#C[C@@H](O)[C@]12CC[C@@H](C(=C)C)[C@@H]1[C@H]1CC[C@@H]3[C@@]4(C)CC[C@H](OC(C)=O)C(C)(C)[C@@H]4CC[C@@]3(C)[C@]1(C)CC2)CC=C [listing 1 of 2 here] | – | 21.8 µM | – | – | – | – | – | > 60 µM | > 60 µM | – | 30.2 µM | 15.7 µM | 12.4 µM | 44.2 µM | 52 µM | 32.8 µM | 47.9 µM | – | –
6 | C=C(C)[C@@H]1CC[C@]2([C@H](O)C#CCN(CCC)CCC)CC[C@]3(C)[C@H](CC[C@@H]4[C@@]5(C)CC[C@H](OC(C)=O)C(C)(C)[C@@H]5CC[C@]43C)[C@@H]12 | 7.5 µM | 24.2 µM | 16.5 µM | 12 µM | 20.7 µM | 21 µM | 15.2 µM | 25.9 µM | > 30 µM | 28 µM | – | – | – | – | – | – | – | – | –
7 | C=C(C)[C@@H]1CC[C@]2([C@@H](O)C#CCN3CCCC3)CC[C@]3(C)[C@H](CC[C@@H]4[C@@]5(C)CC[C@H](OC(C)=O)C(C)(C)[C@@H]5CC[C@]43C)[C@@H]12 | 20 µM | 11.6 µM | 7.7 µM | 8.3 µM | 18.8 µM | 12.1 µM | 10.4 µM | 12 µM | 14.5 µM | 11.1 µM | – | – | – | – | – | – | – | – | –
8 | C#C[C@H](O)[C@]12CC[C@@H](C(=C)C)[C@@H]1[C@H]1CC[C@@H]3[C@@]4(C)CC[C@H](O)C(C)(C)[C@@H]4CC[C@@]3(C)[C@]1(C)CC2 | 13 µM | 12.9 µM | 11.9 µM | 9.7 µM | 21.9 µM | 15.1 µM | 14.1 µM | 20.4 µM | 10.5 µM | 16.1 µM | – | – | – | – | – | – | – | – | –
9 | C=CCN(CC#C[C@@H](O)[C@]12CC[C@@H](C(=C)C)[C@@H]1[C@H]1CC[C@@H]3[C@@]4(C)CC[C@H](OC(C)=O)C(C)(C)[C@@H]4CC[C@@]3(C)[C@]1(C)CC2)CC=C [listing 2 of 2 here] | 48 µM | – | 31.1 µM | 18.2 µM | 57.6 µM | > 60 µM | 43.1 µM | – | – | > 60 µM | – | – | – | – | – | – | – | 17 µM | > 30 µM
